Source: publication PMC7765794 (Nutrients, 2020)

Legend:
[1] = target: T1, human ODC (Homo sapiens, UniProt P11926); assay: ODC enzyme activity assay and inhibition study (CO2-L3K coupled spectrophotometric assay); format: biochemical; settings: for IC50: purified human ODC, 37 °C, 10 mM ornithine, 0.2 mM PLP, n = 3, read-out: IC50 to ornithine decarboxylase (ODC);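 as to all read-outs here: His-tagged human ODC expressed in Escherichia coli, activity followed as decarboxylation coupled via PEP carboxylation and malate formation to NADH analog oxidation, absorbance drop at 405 nm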
T1 construct: His-tag (N); made in house; host or cells: Escherichia coli JM109
T1 sequence (P11926 1-461): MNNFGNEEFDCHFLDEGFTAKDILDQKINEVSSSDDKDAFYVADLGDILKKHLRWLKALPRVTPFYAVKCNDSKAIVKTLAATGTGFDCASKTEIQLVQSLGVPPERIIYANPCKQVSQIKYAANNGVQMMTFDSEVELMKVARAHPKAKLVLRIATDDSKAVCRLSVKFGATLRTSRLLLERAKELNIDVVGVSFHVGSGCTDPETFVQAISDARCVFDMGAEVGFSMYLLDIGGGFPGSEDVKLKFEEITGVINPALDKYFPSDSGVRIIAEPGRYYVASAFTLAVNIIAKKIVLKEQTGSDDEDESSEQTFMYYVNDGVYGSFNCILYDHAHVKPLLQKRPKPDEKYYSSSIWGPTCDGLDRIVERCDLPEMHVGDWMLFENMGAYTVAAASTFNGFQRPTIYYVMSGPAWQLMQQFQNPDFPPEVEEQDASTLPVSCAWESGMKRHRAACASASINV

[2] = system: HL-60 cells; assay: Cell viability (trypan blue), acridine orange staining and DNA fragmentation in HL-60 cells; format: cell-based, human; settings: for apoptosis in HL-60 cells (apoptotic bodies, DNA fragmentation): 50 μM baicalein or up to 75 µM myricetin, 24 h; for IC50: Homo sapiens, HL-60, after 24 h, viable cell count
Method: The human promyelocytic leukemia HL-60 and human acute Jurkat T cell leukemia cell lines were grown in 90% RPMI 1640 medium supplemented with 10% fetal bovine serum (FBS) at a temperature of 37 °C under a humidified 5% CO2 atmosphere. These cell lines were approved by short tandem repeat profiling, and the cells were passaged for no more than 2 months. Cells (2 × 10^6/mL) were seeded into 60-mm Petri dishes and incubated at 37 °C. The cells were harvested by treatment with 5 µM rottlerin. Viable cells were counted using the trypan blue exclusion method. The cell suspension was mixed on a slide with an equal volume of acridine orange solution (10 mg/mL). Green fluorescence was detected between 500 and 525 nm with a fluorescence microscope (Zeiss, Oberkochen, Germany). Cells were harvested and lysed overnight in digestion buffer (0.5% sarkosyl, 0.5 mg/mL proteinase K, 50 mM Tris-HCl, pH 8.0 and 10 mM ethylenediamine tetraacetic acid (EDTA) at 55 °C). Subsequently, cells were treated with 0.5 μg/mL RNase A for 2 h. Genomic DNA was extracted by phenol/chloroform/isoamyl alcohol extraction and analyzed by gel electrophoresis using 2% agarose.

[3] = system: Jurkat cells; assay: Cell growth and apoptosis in Jurkat cells; format: cell-based, human; settings: for growth of Jurkat cells (in words): 100 µM baicalein or 75 µM myricetin (Figure S5); for apoptosis of Jurkat cells (in words): 100 µM baicalein or myricetin (Figure S5)
Method: The human promyelocytic leukemia HL-60 and human acute Jurkat T cell leukemia cell lines were grown in 90% RPMI 1640 medium supplemented with 10% fetal bovine serum (FBS) at a temperature of 37 °C under a humidified 5% CO2 atmosphere. These cell lines were approved by short tandem repeat profiling, and the cells were passaged for no more than 2 months.
Cells (2 × 10^6/mL) were seeded into 60-mm Petri dishes and incubated at 37 °C. The cells were harvested by treatment with 5 µM rottlerin. Viable cells were counted using the trypan blue exclusion method. The cell suspension was mixed on a slide with an equal volume of acridine orange solution (10 mg/mL). Green fluorescence was detected between 500 and 525 nm with a fluorescence microscope (Zeiss, Oberkochen, Germany).
Cells were harvested and lysed overnight in digestion buffer (0.5% sarkosyl, 0.5 mg/mL proteinase K, 50 mM Tris-HCl, pH 8.0 and 10 mM ethylenediamine tetraacetic acid (EDTA) at 55 °C). Subsequently, cells were treated with 0.5 μg/mL RNase A for 2 h. Genomic DNA was extracted by phenol/chloroform/isoamyl alcohol extraction and analyzed by gel electrophoresis using 2% agarose.
(C) and (D) Apoptotic bodies […]
(1 picture or pasted object on this page, not shown here)

[4] = system: ODC-empty HL-60 cells; assay: Cell growth and apoptosis in HL-60 cells with ODC-empty vector; format: cell-based, human; settings: 50 μM baicalein or 75 µM myricetin; for cell growth of ODC-empty HL-60 cells (in words): 24 h
Method: (§1) Cells (2 × 10^6/mL) were seeded into 60-mm Petri dishes and incubated at 37 °C. The cells were harvested by treatment with 5 µM rottlerin. Viable cells were counted using the trypan blue exclusion method. The cell suspension was mixed on a slide with an equal volume of acridine orange solution (10 mg/mL). Green fluorescence was detected between 500 and 525 nm with a fluorescence microscope (Zeiss, Oberkochen, Germany). The ODC-empty vector (pcDNA3-ODC-empty) and ODC-overexpressing vector (pcDNA3-ODC-WT) were transfected into parental HL-60 cells according to calcium phosphate-mediated transfection. Stably transfected cells were selected with the antibiotic G418 (400 μg/mL). After three weeks, the isolated G418-resistant clones were individually selected to analyze the protein expression of ODC in the cells. Cells were harvested and lysed overnight in digestion buffer (0.5% sarkosyl, 0.5 mg/mL proteinase K, 50 mM Tris-HCl, pH 8.0 and 10 mM ethylenediamine tetraacetic acid (EDTA) at 55 °C). Subsequently, cells were treated with 0.5 μg/mL RNase A for 2 h. Genomic DNA was extracted by phenol/chloroform/isoamyl alcohol extraction and analyzed by gel electrophoresis using 2% agarose.

[5] = system: ODC-WT HL-60 cells; assay: Cell growth and apoptosis in ODC-overexpressing HL-60 cells; format: cell-based, human; settings: for apoptosis in ODC-WT HL-60 cells (in words): 50 μM baicalein or 75 µM myricetin
Method: as §1, with “The cells were harvested by treatment with 5 µM rottlerin.” left out

SMILES	IC50 [1] [µM]	apoptosis in HL-60 cells (apoptotic bodies, DNA fragmentation) [2]	IC50 [2] [µM]	growth of Jurkat cells (in words) [3]	apoptosis of Jurkat cells (in words) [3]	apoptosis in ODC-empty HL-60 cells (in words) [4]	cell growth of ODC-empty HL-60 cells (in words) [4]	apoptosis in ODC-WT HL-60 cells (in words) [5]	Ki ([1]; with respect to substrate L-ornithine, noncompetitive fit, read-out: Ki(ornithine) against ODC) [µM]	cell death / growth suppression in HL-60 cells (in words) ([2]; baicalein 0–70 μM)	cell growth of ODC-WT HL-60 cells (in words) ([5]; 50 μM baicalein, 24 h)
O=c1c(O)c(-c2cc(O)c(O)c(O)c2)oc2cc(O)cc(O)c12 [Myricetin]	7.3	induced apoptosis	~75	suppressed the growth of Jurkat cells	induced cellular apoptosis with DNA fragmentation	induced apoptotic bodies in ODC-empty cells	more effective than in ODC-WT HL-60 cells	but not in ODC-WT HL-60 cells			
O=c1cc(-c2ccccc2)oc2cc(O)c(O)c(O)c12 [Baicalein, 5,6,7-trihydroxyflavone]	0.88	exhibited apoptosis	~50	suppressed the growth of Jurkat cells	induced cellular apoptosis with DNA fragmentation	appearance of apoptotic bodies and DNA fragmentation	growth arrest	normal cell morphology and slight DNA fragmentation	0.64 ± 0.18	cell death was dose-dependent	growth arrest
